Data reported in US7994329B2, “Growth hormone secretagogue receptor type 1A agonists” (Helsinn Therapeutics (U.S.), Inc., priority 2000, dated 2011).
Read-outs that look alike come from different tables or passages of the source. No end group written: not given here.

What was measured:
GHS-R 1A = biological target: T1, GHS-R 1A (Homo sapiens, UniProt Q92847); assay: Receptor binding assay, membranes of BHK/GHS-R 1A cells
T1 construct: expressed in transfected cells; host or cells: BHK cells, stably transfected
T1 sequence (Q92847 whole entry): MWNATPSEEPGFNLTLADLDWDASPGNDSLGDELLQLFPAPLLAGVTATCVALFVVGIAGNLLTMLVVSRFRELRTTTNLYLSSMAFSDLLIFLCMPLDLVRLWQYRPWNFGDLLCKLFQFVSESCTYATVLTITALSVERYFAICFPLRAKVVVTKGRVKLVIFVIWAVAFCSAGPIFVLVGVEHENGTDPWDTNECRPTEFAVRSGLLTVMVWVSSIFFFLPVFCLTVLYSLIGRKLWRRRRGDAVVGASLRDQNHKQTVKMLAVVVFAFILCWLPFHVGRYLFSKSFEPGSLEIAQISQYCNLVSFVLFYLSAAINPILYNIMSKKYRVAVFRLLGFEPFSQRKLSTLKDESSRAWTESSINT
Protocol: Briefly, crude membranes from stably transfected BHK/GHS-R 1A cells were suspended at 0.5 mg protein/ml in homogenization buffer (25 mM Tris-base, 2.5 mM EDTA, 10 mM MgCl2 and 30 μg/ml bacitracin). […] The filters were subsequently washed in 0.9% NaCl and counted using an Optiphase™ ‘HiSafe 3’ counter (Wallac, Turku, Finland).
Specific binding was determined as the difference between total binding and non-specific binding (binding in the presence of 10 μM unlabelled ligand). Binding curves were generated using either the non-linear regression or hyperbolic fit feature of the GraphPad™ Prism software package (GraphPad, San Diego, Calif., U.S.A.).

food intake = assay: Food intake in non-deprived male Wistar rats (feeding boxes); assay type: in vivo, rat; settings: 3 hours after injection
Protocol: Food intake was measured in feeding boxes with standard chow and water placed on balances connected to a computer. Changes in weight of chow and water were continuously registered. Food and water intake were measured for 3 hours after drug injection during early daytime, when food intake is normally at a very low level.
The effect on feeding was tested after icy injections in non-deprived male Wistar rats. The compounds were dissolved in 5 μl saline and injected in the following doses: 10.0 μg per rat (NNC 26-1291) and 30.0 μg per rat (NN703 and NNC 26-1187).
Food intake was measured in feeding boxes, where standard chow and water were placed on balances and changes in weight continuously registered. Food and water intake was measured for 3 hours after drug injection in the beginning of the light part of the diurnal cycle, when food intake is normally at a very low level. […] For comparison, food intake in control animals is normally about 1 gram, and icy administration of 10 μg porcine neuropeptide Y (NPY), which has a strong effect on food intake, increases food consumption to about 8 grams in this model.
Non-deprived male Wistar rats (n=6-10) were used for the study, dosed with vehicle or with ghrelin at 10 μg/rat icy dissolved in 5 μl saline. Food intake was measured in conscious animals, using feeding boxes. Food and water intake were measured for 3 hours after drug injection during early daytime, when food intake is normally at a very low level. GH release was measured in Halothane-anaesthetized animals from which blood samples were obtained, before dosing and 10 min after dosing, via the orbital plexus. The plasma was analyzed for rat GH.

GH release [1] = assay: GH release in anaesthetized rats (plasma rat GH); assay type: in vivo
Protocol: Blood samples were obtained from anaesthetized animals before dosing, and either 10 min after dosing or by frequent blood sampling through a catheter up until 45 min after dosing. The plasma was analyzed for rat GH.
Non-deprived male Wistar rats (n=6-10) were used for the study, dosed with vehicle or with ghrelin at 10 μg/rat icy dissolved in 5 μl saline. […] GH release was measured in Halothane-anaesthetized animals from which blood samples were obtained, before dosing and 10 min after dosing, via the orbital plexus. The plasma was analyzed for rat GH.

GH release [2] = settings: cited from earlier work
rat pituitary cells = assay: GH secretion from rat pituitary cells; assay type: cell-based
[3] = read-out: Binding affinity to the GHS-R 1A (Ki)

CN(C)N(C)C(=O)C1(Cc2ccccc2)CCCN(C(=O)[C@@H](Cc2c[nH]c3ccccc23)NC(=O)C(C)(C)N)C1 (stereo partly drawn) [NNC 26-1291]
Ki (GHS-R 1A): 0.4 ± 0.06 nM

CN(CCc1ccccn1)C(=O)[C@@H](Cc1ccccc1)N(C)C(=O)[C@@H](Cc1ccc2ccccc2c1)N(C)C(=O)/C=C/CC(C)(C)N [NNC 26-1187]
Ki (GHS-R 1A; [3]): 22.2 ± 7 nM

CNC(=O)[C@@H](Cc1ccccc1)N(C)C(=O)[C@@H](Cc1ccc2ccccc2c1)N(C)C(=O)/C=C/CC(C)(C)N [NN703]
Ki (GHS-R 1A; [3]): 112 ± 29 nM | Food intake (food intake; 30.0 μg per rat icy): about 3 grams

ghrelin (GSSFLSPEHQRVQQRKESKKPPAKLQPR; ends and bridges not checked; UniProt Q9UBU3 24-51, looked up) [peptide described by Kojima in Nature (1999), vol; 402, 656-660, reference compound]
GH release after icy administration (GH release [1]; ghrelin 10 μg/rat icy, Halothane-anaesthetized male Wistar rats, 10 min after dosing): did not stimulate GH release | Effect on food intake vs vehicle (food intake; 10 μg/rat icy): significant effect on feeding | GH release after iv administration (GH release [2]): causes stimulation of GH release

Nc1ncnc2c1ncn2[C@@H]1O[C@H](CO)[C@@H](O)[C@H]1O [Adenosine, adenosine]
Stimulation of GH secretion from rat pituitary cells (rat pituitary cells): unable to stimulate GH secretion | GH release after intravenous (iv) administration (GH release [1]; adenosine 1 mg/kg iv, also 10 mg/kg iv in pentobarbital anaesthetized female SD rats): did not stimulate GH release | GH release after intracerebroventricular (icy) administration (GH release [1]; adenosine 10 and 100 μg/rat icy, Halothane anaesthetized male Wistar rats): did not stimulate GH release | Effect on food intake vs vehicle (food intake; 1 μg/rat icy): no effect | Effect on food intake vs vehicle (food intake; 10 μg/rat icy): food intake was significantly increased
